Reference: US11813306B2, “Cyclic tetramer compounds as proprotein convertase subtilisin/kexin type 9 (PCSK9) inhibitors for the treatment of metabolic disorders” (NOVARTIS AG, priority 2018, dated 2023)

Target: human PCSK9 (Homo sapiens, UniProt Q8NBP7)
Experiment: PCSK9 ligand binding assay (TR-FRET): interference with binding of human PCSK9 to human LDLR
Conditions: for IC50: Human PCSK9 Alexa Fluor 647 / Human LDLR extracellular domain-Europium Kryptate; for Max % inhibition: efficacy (Amax), 100% = 1 uM unlabeled human PCSK9, 0% = DMSO
Method in brief: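 Read-out was TR-FRET ratio (665 nm over 615 nm, 330 nm excitation) between Alexa Fluor 647-human PCSK9 (16 nM added) and Europium Kryptate-human LDLR ectodomain (4 nM added). Compound and PCSK9 were mixed 30 min before LDLR, then incubated 2 h. Inhibition was normalised to DMSO and unlabelled-PCSK9 controls, giving IC50 and Amax.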

human PCSK9, sequence (Q8NBP7 153-692): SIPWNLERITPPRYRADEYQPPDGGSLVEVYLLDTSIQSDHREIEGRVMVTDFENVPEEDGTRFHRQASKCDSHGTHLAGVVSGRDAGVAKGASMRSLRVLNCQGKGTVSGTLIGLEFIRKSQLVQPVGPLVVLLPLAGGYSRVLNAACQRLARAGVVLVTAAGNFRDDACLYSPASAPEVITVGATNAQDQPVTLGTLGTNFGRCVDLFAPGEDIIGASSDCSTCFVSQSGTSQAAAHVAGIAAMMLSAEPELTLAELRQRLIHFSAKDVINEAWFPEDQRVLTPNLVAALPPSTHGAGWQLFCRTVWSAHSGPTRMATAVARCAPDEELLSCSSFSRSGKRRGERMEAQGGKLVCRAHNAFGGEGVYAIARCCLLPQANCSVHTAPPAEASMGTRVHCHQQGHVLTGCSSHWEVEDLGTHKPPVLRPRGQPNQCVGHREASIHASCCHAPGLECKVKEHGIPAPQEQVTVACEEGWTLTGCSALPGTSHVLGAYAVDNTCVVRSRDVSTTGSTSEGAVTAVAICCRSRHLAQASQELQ
human PCSK9, sequence (Q8NBP7 31-152 partner limits assumed): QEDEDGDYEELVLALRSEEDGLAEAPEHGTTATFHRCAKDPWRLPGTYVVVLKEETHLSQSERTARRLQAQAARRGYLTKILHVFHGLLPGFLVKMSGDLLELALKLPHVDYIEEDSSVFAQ

Row | IC50 [nM] | Max % inhibition [%] | SMILES
1 | 25 | 99.0 | COC[C@@H]1NC(=O)[C@H](C)N(Cc2ccc(Cl)cc2Oc2ccc(-c3cnc(CN4CCCC4)n3C)cc2)C(=O)C[C@@H]([C@H]2CCc3ccccc32)C(=O)N(CC2(C)CC2)C[C@@H](Cc2ccc(Cl)cc2)N(C)C1=O.Cl [Compound 115, (2S, 5S, 8R, 12S)-1-(4-chloro-2-(4-(1-methyl-2-(pyrrolidin-1-ylmethyl)-1H-imidazol-5-yl)phenoxy)benzyl)-8-(4-chlorobenzyl)-12-((R)-2,3-dihydro-1H-inden-1-yI)-5-(methoxymethyl)-2,7-dimethyl-10-((1-methylcyclopropyl)methyl)-1,4,7,10-tetraazacyclotetradecane-3,6,11,14-tetraone]
2 | 19.7 | 104.9 | COC[C@@H]1NC(=O)[C@H](C)N(Cc2ccc(Cl)cc2Oc2ccc(-c3cnc(CN4CCCC4)n3C)cc2)C(=O)C[C@@H](Cc2ccccc2)C(=O)N(CCCN(C)C)C[C@@H](Cc2ccc(Cl)cc2)N(C)C1=O.Cl [Compound 116, (2S, 5S, 8R, 12R)-12-benzyl-1-(4-chloro-2-(4-(1-methyl-2-(pyrrolidin-1-ylmethyl)-1H-imidazol-5-yl)phenoxy)benzyl)-8-(4-chlorobenzyl)-10-(3-(dimethylamino)propyl)-5-(methoxymethyl)-2,7-dimethyl-1,4,7,10-tetraazacyclotetradecane-3,6,11,14-tetraone]
3 | 35.1 | 98.9 | COC[C@@H]1NC(=O)[C@H](C)N(Cc2ccc(Cl)cc2Oc2cc(F)c(-c3cnc(CN4CCCC4)n3C)c(F)c2)C(=O)C[C@@H](Cc2ccccc2)C(=O)N(C)C[C@@H](Cc2ccc(Cl)cc2)N(C)C1=O.Cl [Compound 117, (2S, 5S, 8R, 12R)-12-benzyl-1-(4-chloro-2-(3,5-difluoro-4-(1-methyl-2-(pyrrolidin-1-ylmethyl)-1H-imidazol-5-yl)phenoxy)benzyl)-8-(4-chlorobenzyl)-5-(methoxymethyl)-2,7,10-trimethyl-1,4,7,10-tetraazacyclotetradecane-3,6,11,14-tetraone]
4 | 59.6 | 95.2 | CCc1ccc(CN2C(=O)C[C@@H]([C@@H]3CCc4ccccc43)C(=O)N(C)C[C@H](Cc3ccc(Cl)cc3)N(C)C(=O)[C@H](CO)NC(=O)[C@@H]2C)c(Oc2ccc(-c3cnc(CN(C)C)n3C)cc2)c1 [Compound 118, (2S, 5S, 8S, 12S)-8-(4-chlorobenzyl)-12-((S)-2,3-dihydro-1H-inden-1-yl)-1-(2-(4-(2-((dimethylamino)methyl)-1-methyl-1H-imidazol-5-yl)phenoxy)-4-ethylbenzyl)-5-(hydroxymethyl)-2,7,10-trimethyl-1,4,7,10-tetraazacyclotetradecane-3,6,11,14-tetraone]
5 | 31.3 | 94.0 | CCc1ccc(CN2C(=O)C[C@@H]([C@@H]3CCc4ccccc43)C(=O)N(C)C[C@@H](Cc3ccc(Cl)cc3)N(C)C(=O)[C@H](CO)NC(=O)[C@@H]2C)c(Oc2ccc(-c3cnc(CN(C)C)n3C)cc2)c1 [Compound 119, (2S,5S,8R,12S)-8-(4-Chlorobenzyl)-12-((S)-2,3-dihydro-1H-inden-1-yl)-1-(2-(4-(2-((dimethylamino)methyl)-1-methyl-1H-imidazol-5-yl)phenoxy)-4-ethylbenzyl)-5-(hydroxymethyl)-2,7,10-trimethyl-1,4,7,10-tetraazacyclotetradecane-3,6,11,14-tetraone]
6 | 91.5 | 92.9 | CCc1ccc(CN2C(=O)C[C@@H]([C@@H]3CCc4ccccc43)C(=O)N(C)C[C@@H](Cc3ccc(Cl)cc3)N(C)C(=O)[C@@H](CO)NC(=O)[C@@H]2C)c(Oc2ccc(-c3cnc(CN(C)C)n3C)cc2)c1 [Compound 121]
7 | 94.3 | 96.9 | COC[C@H]1NC(=O)[C@H](C)N(Cc2ccc(Cl)cc2Oc2ccc(-c3cnc(CN(C)C)n3C)nc2)C(=O)C[C@@H](Cc2ccccc2)C(=O)N2CCC[C@@](Cc3ccc(Cl)cc3)(C2)NC1=O [Compound 122, (3R, 7S, 10R, 13R)-3-benzyl-6-(4-chloro-2-((6-(2-((dimethylamino)methyl)-1-methyl-1H-imidazol-5-yl)pyridin-3-yl)oxy)benzyl)-13-(4-chlorobenzyl)-10-(methoxymethyl)-7-methyl-1,6,9,12-tetraazabicyclo[11.3.1]heptadecane-2,5,8,11-tetraone]
8 | 346 | 84.4 | C[C@H]1C(=O)N[C@@H](CO)C(=O)N[C@@]2(Cc3ccc(Cl)cc3)CCCN(C2)C(=O)[C@H]([C@@H]2CCc3ccccc32)CC(=O)N1Cc1ccc(Oc2ccc(-c3cnc(CN(C)C)n3C)cc2)cc1F [Compound 123]
9 | 102 | 96.8 | CC[C@@H]1CC(=O)N(Cc2ccc(Cl)cc2Oc2ccc(-c3cnc(CN4CCCC4)n3C)cc2)[C@@H](C)C(=O)N[C@@H](CO)C(=O)N(C)[C@H](Cc2ccc(Cl)cc2)CNC1=O.Cl [Compound 124, (2S, 5S, 8R, 12R)-1-(4-chloro-2-(4-(1-methyl-2-(pyrrolidin-1-ylmethyl)-1H-imidazol-5-yl)phenoxy)benzyl)-8-(4-chlorobenzyl)-12-ethyl-5-(hydroxymethyl)-2,7-dimethyl-1,4,7,10-tetraazacyclotetradecane-3,6,11,14-tetraone]
10 | 103 | 92.2 | COC[C@@H]1NC(=O)[C@H](CCN2CCOCC2)N(Cc2ccc(Cl)cc2Oc2ccc(-c3cnc(CN(C)C)n3C)cc2)C(=O)C[C@@H]([C@H]2CCc3ccccc32)C(=O)N(C)C[C@@H](Cc2ccc(Cl)cc2)N(C)C1=O.Cl [Compound 125, (2S, 5S, 8R, 12S)-1-(4-chloro-2-(4-(2-((dimethylamino)methyl)-1-methyl-1H-imidazol-5-yl)phenoxy)benzyl)-8-(4-chlorobenzyl)-12-((R)-2,3-dihydro-1H-inden-1-yl)-5-(methoxymethyl)-7,10-dimethyl-2-(2-morpholinoethyl)-1,4,7,10-tetraazacyclotetradecane-3,6,11,14-tetraone]
11 | 612 | 100.1 | C[C@H](NCc1ccc(Cl)cc1Oc1ccc(-c2cnc(CN(C)C)n2C)cc1)C(=O)N[C@H]1COC(=O)C[C@@H](Cc2ccccc2)C(=O)N2CCC[C@@](Cc3ccc(Cl)cc3)(C2)N(C)C1=O [Compound 126, (2S)-N-((3R, 8S, 11R)-3-benzyl-11-(4-chlorobenzyl)-10-methyl-2,5,9-trioxo-6-oxa-1,10-diazabicyclo[9.3.1]pentadecan-8-yl)-2-((4-chloro-2-(4-(2-((dimethylamino)methyl)-1-methyl-1H-imidazol-5-yl)phenoxy)benzyl)amino)propanamide]
12 | 138 | 94.3 | COC[C@@H]1NC(=O)[C@H](CCCN2CCOCC2)N(Cc2ccc(Cl)cc2Oc2ccc(-c3cnc(CN(C)C)n3C)cc2)C(=O)C[C@@H]([C@H]2CCc3ccccc32)C(=O)N(C)C[C@@H](Cc2ccc(Cl)cc2)N(C)C1=O.Cl [Compound 127, (2S, 5S, 8R, 12S)-1-(4-chloro-2-(4-(2-((dimethylamino)methyl)-1-methyl-1H-imidazol-5-yl)phenoxy)benzyl)-8-(4-chlorobenzyl)-12-((R)-2,3-dihydro-1H-inden-1-yl)-5-(methoxymethyl)-7,10-dimethyl-2-(3-morpholinopropyl)-1,4,7,10-tetraazacyclotetradecane-3,6,11,14-tetraone]
